Experimental data as given in US20130131156A1, “Cancer Treatment with Wortmannin Analogs” (ONCOTHYREON INC., priority 2010, published 2013).

Columns and labels:
[1] = biological target: PIK3CA (p110α) (Homo sapiens, UniProt P42336); assay: PI-3K isoform inhibition, p110α (PIK3CA); the text calls it cell based; details: cell proliferation assays versus p110α and p110β isoforms
Description: PX-866 is an pan-isoform inhibitor of Class I P1-3K that covalently binds to ATP binding site of the p110 catalytic subunit.

[2] = Phase I trial of oral PX-866: clinical pharmacokinetics; assay type: in vivo, human
[3] = Phase I trial of oral PX-866: safety, DLT and MTD; assay type: in vivo, human; details: for Maximal Tolerated Dose (MTD): oral
Method: (§1) This was an Open-label dose escalation study with expansion cohort at Maximal Tolerated Dose (MTD), 3+3 design and to test efficacy of 2 dosing schedules (intermittent and continuous). PX-866 was administered as an oral dose.
The primary and secondary objectives were tested using two different dosing regimens: 10 days of drug administration and daily administration for 28 days.
Intermittent schedule: 10 dose levels tested (0.5-16 mg). The starting dose level was 0.5 mg. Doses increased as follows: 100% escalation up to 2 mg, 50% escalation up to 4.5 mg, and approximately 30% escalation until the MTD is identified. The highest dose level at which no more than 1/6 patients experiences DLT was declared the MTD. The resulting dose levels were: 0.5, 1, 2, 3, 4.5, 6, 8, 10, 12 and 16 mg.
FIG. 1 illustrates the dosing schedule for intermittent dosing where PX-866 was given to patients on days 1-5 and 8-12 of a 28-day cycle.
Continuous dosing schedule: The starting dose was two dose levels below the MTD of intermittent dosing (8 mg) and subsequent dose levels was one or two dose levels (10 mg or 8 mg) below the MTD of intermittent dosing dependent on recommendation of the dose cohort review committee. FIG. 1 illustrates the dosing schedule for continuous dosing.

[4] = system: advanced solid tumors; assay: Phase I trial of oral PX-866: tumor response by RECIST; assay type: in vivo, human; details: 1 to 7 prior treatments, median 4 prior systemic regimens
Method: as §1
Patient response was evaluated according to Response Evaluation Criteria in Solid Tumors (RECIST). Briefly, all measurable lesions up to a maximum of five lesions, representative of all involved organs were identified as target lesions and recorded and measured at baseline. Target lesions were selected on the basis of their size (lesions with the longest diameter) and their suitability for accurate repeated measurements (either by imaging techniques or clinically). A sum of the longest diameter (LD) for all target lesions was calculated and reported as the baseline sum LD. The baseline sum LD was used as reference by which to characterize the objective tumor. All other lesions (or sites of disease) were identified as non-target lesions and were also be recorded at baseline. Measurements of these lesions were not required, but the presence or absence of each was noted throughout follow-up.
A Complete Response (CR) indicated a disappearance of all target lesions.

[5] = system: PI-3K pathway; assay: Clinical pharmacodynamics: PBMCs stimulated ex vivo, FACS based assay (p-mTOR, p-S6); assay type: in vivo, human; details: PBMCs of treated patients stimulated ex vivo
Method: The pharmacodynamic effects of PX-866 in patients treated in the phase I single agent study were assessed using isolated peripheral blood mononuclear cells (PBMCs) stimulated ex vivo via FACS based assay. […] The study provided Evidence for pathway inhibition lasting up to 3 days post-treatment.

[6] = system: p-AKT/T-AKT; assay: Clinical pharmacodynamics: p-AKT/T-AKT after a single oral dose; assay type: in vivo, human; details: 3 of 4 patients, 8 mg dose level, 4 hours after a single oral dose

PIK3CA (p110α), sequence (P42336 whole entry, canonical isoform): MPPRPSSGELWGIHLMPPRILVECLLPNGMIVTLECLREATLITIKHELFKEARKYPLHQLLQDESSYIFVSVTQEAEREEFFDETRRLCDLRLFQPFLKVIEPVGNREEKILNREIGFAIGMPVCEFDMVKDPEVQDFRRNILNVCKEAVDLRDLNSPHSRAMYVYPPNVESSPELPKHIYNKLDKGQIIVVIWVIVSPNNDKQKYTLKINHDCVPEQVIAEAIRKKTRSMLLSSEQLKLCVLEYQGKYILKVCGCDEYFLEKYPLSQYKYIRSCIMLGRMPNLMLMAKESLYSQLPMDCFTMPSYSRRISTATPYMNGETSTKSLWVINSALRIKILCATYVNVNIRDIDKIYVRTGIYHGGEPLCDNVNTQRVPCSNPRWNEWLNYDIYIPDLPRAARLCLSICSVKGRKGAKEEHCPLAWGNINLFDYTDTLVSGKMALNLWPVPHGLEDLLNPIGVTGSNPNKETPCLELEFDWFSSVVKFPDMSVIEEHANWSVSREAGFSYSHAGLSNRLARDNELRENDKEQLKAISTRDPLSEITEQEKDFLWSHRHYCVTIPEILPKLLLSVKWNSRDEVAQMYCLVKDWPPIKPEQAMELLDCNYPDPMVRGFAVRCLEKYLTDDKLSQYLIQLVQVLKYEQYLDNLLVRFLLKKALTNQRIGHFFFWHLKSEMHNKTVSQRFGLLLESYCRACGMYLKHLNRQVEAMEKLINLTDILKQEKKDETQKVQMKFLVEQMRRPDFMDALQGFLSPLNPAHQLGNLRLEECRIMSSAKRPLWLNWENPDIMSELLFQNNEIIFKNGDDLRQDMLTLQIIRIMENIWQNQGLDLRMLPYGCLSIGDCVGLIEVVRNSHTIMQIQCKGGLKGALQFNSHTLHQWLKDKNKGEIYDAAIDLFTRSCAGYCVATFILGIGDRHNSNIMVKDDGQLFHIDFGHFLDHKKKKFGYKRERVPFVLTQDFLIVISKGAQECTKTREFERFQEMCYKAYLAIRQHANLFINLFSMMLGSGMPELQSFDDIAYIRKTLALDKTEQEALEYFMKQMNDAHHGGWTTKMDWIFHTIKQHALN
PIK3CA (p110α), sequence (P27986 whole entry partner, canonical isoform): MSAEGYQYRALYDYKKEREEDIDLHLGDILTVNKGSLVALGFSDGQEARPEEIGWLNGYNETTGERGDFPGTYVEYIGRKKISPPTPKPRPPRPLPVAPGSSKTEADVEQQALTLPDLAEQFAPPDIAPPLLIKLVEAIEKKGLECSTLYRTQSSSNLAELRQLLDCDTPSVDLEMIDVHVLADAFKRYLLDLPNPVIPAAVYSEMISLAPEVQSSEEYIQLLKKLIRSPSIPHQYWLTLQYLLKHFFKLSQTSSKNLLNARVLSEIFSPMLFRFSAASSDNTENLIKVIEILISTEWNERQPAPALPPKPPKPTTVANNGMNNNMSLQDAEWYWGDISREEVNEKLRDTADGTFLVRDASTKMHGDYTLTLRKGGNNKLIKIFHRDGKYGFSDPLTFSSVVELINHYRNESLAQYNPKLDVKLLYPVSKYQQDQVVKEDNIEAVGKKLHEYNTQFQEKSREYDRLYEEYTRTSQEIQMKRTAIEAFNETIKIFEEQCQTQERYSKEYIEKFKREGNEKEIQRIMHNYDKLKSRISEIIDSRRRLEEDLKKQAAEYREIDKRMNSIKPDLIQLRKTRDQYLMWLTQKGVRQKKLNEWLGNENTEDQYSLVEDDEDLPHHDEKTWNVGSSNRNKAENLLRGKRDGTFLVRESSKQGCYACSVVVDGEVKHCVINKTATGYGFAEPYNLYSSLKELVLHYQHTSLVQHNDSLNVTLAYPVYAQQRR

| SMILES | increase in potency versus the parent PX-866 [1] | AUC in humans compared with mice ([2]; due to an increase in mean residence time in humans) | Maximal Tolerated Dose (MTD) ([3]; continuous daily dosing) | ALT/AST ([3]; continuous dosing) | Most common adverse events ([3]; continuous dosing) | Related Grade 3 events ([3]; continuous dosing section) | Dose limiting toxicity (DLT), patients affected ([3]; continuous dosing, 10 mg per day, Grade 3 diarrhea (n=2)) | Most common adverse events ([3]; intermittent dosing) | Related Grade 3 events ([3]; intermittent dosing) | Dose limiting toxicity (DLT), patients affected ([3]; intermittent dosing, 16 mg per day, Grade 3 diarrhea (n=1), Grade 3 AST (n=1)) | Maximal Tolerated Dose (MTD) ([3]; intermittent dosing, days 1-5 and 8-12 of a 28-day cycle) | toxicity in patients receiving >2 cycles ([3]; printed in the continuous dosing section but worded intermittent dosing schedule) | effect on disease in prior treated patients [4] | plasma level of parent PX-866 ([2]; after oral PX-866, with rare exceptions) | effect on the PI-3K pathway (p-mTOR, p-S6) [5] | decrease in p-AKT/T-AKT [6] |
| --- | --- | --- | --- | --- | --- | --- | --- | --- | --- | --- | --- | --- | --- | --- | --- | --- |
| C=CCN(C=C1C(=O)OC(COC)C2(C)C1=C(O)C(=O)C1=C2C(OC(C)=O)CC2(C)C(O)CCC12)CC=C (stereo not shown) [17-OH PX-866] | 2-5 fold | exceeded AUC in mice | – | – | – | – | – | – | – | – | – | – | – | – | – | – |
| C=CCN(/C=C1/C(=O)O[C@H](COC)[C@@]2(C)C1=C(O)C(=O)C1=C2[C@H](OC(C)=O)C[C@]2(C)C(=O)CC[C@@H]12)CC=C [PX-866, Acetic acid 4-diallylaminomethylene-6-hydroxy-1-α-methoxymethyl-10β,13β-dimethyl-3,7,17-trioxo-1,3,4,7,10,11β,12,13,14α,15,16,17-dodecahydro-2-oxa-cyclopenta[α]phenanthren-11-yl ester] | – | – | 8 mg per day | ALT/AST elevation was observed | diarrhea, nausea, vomiting, headache and fatigue | vomiting (n=3), diarrhea (n=3), liver enzyme elevation (n=2) dehydration (n=1), worsened hypertension (n=1) | 2/3 | diarrhea, nausea, vomiting, and constipation | vomiting (n=3), diarrhea (n=3), liver enzyme elevation (n=2) dehydration (n=1), and worsened hypertension (n=1) | 2/5 | 12 mg per day | No significant increase in toxicity | stabilized disease | below the limits of detection | inhibition of the PI-3K pathway | ≥ 60% |
